Several values for one entry are separate records, joined by “and”; a condition that tells them apart may be missing. Equal entries are not always repeated. Where two headings read alike, the source gives them in different places.
Tests used:
[1] = test system: Ba/F3^myr-Akt3 cells; assay: CellTiter-Glo cell viability assay; details: for Log ratio EC50 [Akt] / EC50 [Akt], Akt3 / Akt2: cell viability assay Ba/F3 myr-Akt cells, log units
[2] = target: Akt2 (Homo sapiens, UniProt P31751); assay: STK HTRF KinEASE activity-based assay (IC50)
Chain of Akt2 (P31751 whole entry): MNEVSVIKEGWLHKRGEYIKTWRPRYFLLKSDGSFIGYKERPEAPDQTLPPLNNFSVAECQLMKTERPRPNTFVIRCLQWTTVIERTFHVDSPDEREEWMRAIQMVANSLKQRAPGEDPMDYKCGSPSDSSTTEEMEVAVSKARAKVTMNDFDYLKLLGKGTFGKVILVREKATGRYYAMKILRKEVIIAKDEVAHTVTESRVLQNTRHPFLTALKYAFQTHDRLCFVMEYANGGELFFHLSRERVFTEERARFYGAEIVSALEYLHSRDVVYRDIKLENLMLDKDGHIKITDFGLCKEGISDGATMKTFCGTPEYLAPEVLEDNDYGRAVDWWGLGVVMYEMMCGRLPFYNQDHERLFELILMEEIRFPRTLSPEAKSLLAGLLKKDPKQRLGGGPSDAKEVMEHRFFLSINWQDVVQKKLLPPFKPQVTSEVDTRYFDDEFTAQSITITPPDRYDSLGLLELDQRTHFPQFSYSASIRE

[3] = target: Akt3 (Homo sapiens, UniProt Q9Y243); assay: STK HTRF KinEASE activity-based assay (IC50)
Chain of Akt3 (Q9Y243 whole entry): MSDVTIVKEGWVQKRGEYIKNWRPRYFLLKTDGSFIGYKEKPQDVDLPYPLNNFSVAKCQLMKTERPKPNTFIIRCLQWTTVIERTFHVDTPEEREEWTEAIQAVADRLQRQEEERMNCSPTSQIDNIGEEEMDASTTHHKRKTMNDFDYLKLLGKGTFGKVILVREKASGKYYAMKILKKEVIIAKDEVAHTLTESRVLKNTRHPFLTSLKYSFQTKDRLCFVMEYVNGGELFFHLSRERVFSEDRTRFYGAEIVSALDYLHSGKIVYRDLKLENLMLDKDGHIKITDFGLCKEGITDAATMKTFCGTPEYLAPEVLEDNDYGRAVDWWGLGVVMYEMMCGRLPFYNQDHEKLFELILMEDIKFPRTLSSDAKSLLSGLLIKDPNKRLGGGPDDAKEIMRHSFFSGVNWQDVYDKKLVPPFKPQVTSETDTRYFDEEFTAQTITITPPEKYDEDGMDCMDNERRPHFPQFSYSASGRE

[4] = test system: Ba/F3^myr-Akt1 cells; assay: CellTiter-Glo cell viability assay; details: for Log ratio EC50 [Akt] / EC50 [Akt], Akt1 / Akt2: cell viability assay Ba/F3 myr-Akt cells, log units
[5] = test system: Ba/F3^myr-Akt2 cells; assay: CellTiter-Glo cell viability assay
Protocol: On day 0, cells were plated into white 384-well cell culture plates (Greiner Bio-One) using a Multidrop reagent dispenser (Thermo Fisher Scientific) at cell numbers that ensure linear and optimal luminescent signal intensity (Ba/F3myr-Akt1: 600 cells/well, Ba/F3myr-Akt2: 800 cells/well, Ba/F3myr-Akt3: 800 cells/well). […] Cell viability was analyzed on day 4 using the CellTiter-Glo Assay (Promega) as per the manufacturer’s instructions. […] All experimental points were measured in duplicates for each plate and were replicated in at least three plates.

[6] = test system: parental Ba/F3 cells; assay: CellTiter-Glo cell viability assay; assay type: cell-based, murine
[7] = target: Akt1 (Homo sapiens, UniProt P31749); assay: STK HTRF KinEASE activity-based assay (IC50); details: for Log ratio IC50 [Akt] / IC50 [Akt], Akt1 / Akt2: biochemical activity based assay, log units
Chain of Akt1 (P31749 whole entry): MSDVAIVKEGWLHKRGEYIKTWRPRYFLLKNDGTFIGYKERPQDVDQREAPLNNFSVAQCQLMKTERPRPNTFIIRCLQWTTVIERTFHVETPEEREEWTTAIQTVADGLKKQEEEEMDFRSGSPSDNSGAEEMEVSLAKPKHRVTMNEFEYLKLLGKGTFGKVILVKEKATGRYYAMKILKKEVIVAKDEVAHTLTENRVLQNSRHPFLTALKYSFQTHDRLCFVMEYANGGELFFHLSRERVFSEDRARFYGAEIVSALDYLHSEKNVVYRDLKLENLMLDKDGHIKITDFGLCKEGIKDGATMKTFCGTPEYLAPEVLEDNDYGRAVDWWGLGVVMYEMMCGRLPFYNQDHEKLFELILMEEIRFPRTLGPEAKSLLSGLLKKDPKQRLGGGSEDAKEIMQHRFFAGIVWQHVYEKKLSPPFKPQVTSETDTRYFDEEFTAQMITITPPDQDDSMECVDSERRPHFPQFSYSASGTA
Protocol: The biochemical half maximal inhibitory concentrations (IC50) were determined with the STK HTRF KinEASE assay (Cisbio) according to the manufactor’s instructions. Briefly: 5 µL Kinase solution and 2.5 µL inhibitor solution (8% DMSO in HTRF buffer) were incubated for 1 h before the reaction was started by addition of 2.5 µL starting solution containing ATP and substrate peptide. […] After reaction completion (Akt1: 60 min, Akt2: 20 min, Akt3: 15 min), 10 µL of stop solution were added. […] The quotient of both intensities were recorded at eight different inhibitor concentrations and data fit to a Hill 4-parameter equation with Quattro software suite (Quattro Research GmbH, Martinsried, Germany). Each reaction was performed in duplicates and at least three independent determinations of each IC50 were made.

[8] = Mus musculus, read-out: CTG BaF3myr-Akt3, Mean, mean of replicates
[9] = Mus musculus, read-out: CTG BaF3myr-Akt3, individual determinations, single replicates
[10] = read-out: CTG BaF3myr-Akt3, individual determinations, single replicates
[11] = HTRF IC50 Akt2, Mean, mean of replicates
[12] = HTRF IC50 Akt2, individual determinations, single replicates
[13] = IC50 Akt2, HTRF, ATP at KM, 1 h preincubation
[14] = HTRF IC50 Akt3, Mean, mean of replicates
[15] = HTRF IC50 Akt3, individual determinations, single replicates
[16] = IC50 Akt3, HTRF, ATP at KM, 1 h preincubation
[17] = read-out: HTRF IC50 Akt3, individual determinations, single replicates
[18] = Mus musculus, read-out: CTG BaF3myr-Akt1, Mean, mean of replicates
[19] = Mus musculus, read-out: CTG BaF3myr-Akt1, individual determinations, single replicates
[20] = read-out: CTG BaF3myr-Akt1, individual determinations, single replicates
[21] = Mus musculus, read-out: CTG BaF3myr-Akt2, Mean, mean of replicates
[22] = read-out: CTG BaF3myr-Akt2, individual determinations, single replicates
[23] = Mus musculus, BaF3, parental cells, single replicates, read-out: CTG BaF3, individual determinations
[24] = parental cells, single replicates, read-out: CTG BaF3, individual determinations
[25] = HTRF IC50 Akt1, Mean, mean of replicates
[26] = HTRF IC50 Akt1, individual determinations, single replicates
[27] = IC50 Akt1, HTRF, ATP at KM, 1 h preincubation
[28] = Mus musculus, read-out: EC50 BaF3myr-Akt1, CTG
[29] = Mus musculus, read-out: CTG BaF3myr-Akt2, individual determinations, single replicates

| Compound | EC50 [1, 8] [µM] | EC50 [1, 9] [µM] | Log ratio EC50 [Akt] / EC50 [Akt], Akt3 / Akt2 [1] | EC50 [1, 10] | IC50 [2, 12] | IC50 [2, 13] [µM] | IC50 [3, 15] | IC50 [3, 16] [µM] | EC50 [4, 18] [µM] | EC50 [4, 19] [µM] | Log ratio EC50 [Akt] / EC50 [Akt], Akt1 / Akt2 [4] | EC50 [4, 20] | EC50 [5, 21] [µM] | EC50 [5, 22] | EC50 [6, 23] [µM] | EC50 [6, 24] | IC50 [7, 25] [µM] | IC50 [7, 26] | IC50 [7, 27] [µM] | Log ratio IC50 [Akt] / IC50 [Akt], Akt1 / Akt2 [7] | also measured |
| --- | --- | --- | --- | --- | --- | --- | --- | --- | --- | --- | --- | --- | --- | --- | --- | --- | --- | --- | --- | --- | --- |
| C=CC(=O)Nc1ccc2[nH]c(=O)n(C3CCN(Cc4ccc(-c5ncc(CN6CCCC6)cc5-c5ccccc5)cc4)CC3)c2c1 [compound 7] | 2.51 | 2.06 | -0.15 | 1.92 µM and 3.02 µM and 3.04 µM | 0.535 µM and 0.351 µM and 0.552 µM | 0.479 ± 0.091 | > 20 µM | > 20 | 4.71 | 4.23 | 0.42 | 4.27 µM and 4.14 µM and 6.2 µM | 1.78 | 1.58 µM and 3 µM and 1.35 µM and 1.19 µM | 6.97 | 8.01 µM and 10.4 µM | 7.09 | 10 µM and 10.5 µM and 4.2 µM and 7.74 µM and 8.28 µM and 1.75 µM | 7.09 ± 3.44 | 1.17 | IC50 [2, 11]: 0.479 µM; IC50 [3, 14]: > 20 µM; IC50 [3, 17]: > 20 µM; EC50 ([6]; Mus musculus, BaF3, parental cells, mean of replicates, read-out: CTG BaF3, Mean): 8.46 µM |
| C=CC(=O)Nc1ccc2[nH]c(=O)n(C3CCN(Cc4ccc(-c5ncc(C(=O)N6CCCC6)cc5-c5ccccc5)cc4)CC3)c2c1 [compound 8] | 26.5 | 23.6 | -0.32 | 28.3 µM and 27 µM | 1.92 µM and 4.34 µM and 2.21 µM | 2.07 ± 0.147 | > 20 µM | > 20 | > 30 | > 30 | 0.37 | > 30 µM | 12.8 | 12.4 µM and 14.1 µM | 17.3 | 20.7 µM and > 30 µM | 4.57 | 4.34 µM and 4.53 µM and 4.82 µM | 4.57 ± 0.197 | 0.34 | drop in affinity of the amide-linked version (7 vs. 8) ([2]; Akt2, biochemical IC50): 5 fold; IC50 [3, 14]: > 20 µM; IC50 [3, 17]: > 20 µM; EC50 [4, 28]: > 30 µM; EC50 [5, 29]: 11.8 µM |
| C=CC(=O)Nc1ccc2[nH]c(=O)n(C3CCN(Cc4ccc(-c5ncc(CNCC(C)C)cc5-c5ccccc5)cc4)CC3)c2c1 [compound 9] | 14.1 | 15.9 | -0.02 | 18.6 µM and 9.33 µM and 12.7 µM | 4.62 µM and 3.65 µM and 4.37 µM | 4.21 ± 0.412 | 6.9 µM and 10.4 µM and 7.86 µM | 8.37 ± 1.78 | > 30 | > 30 | 0.34 | > 30 µM | 13.6 | 12.5 µM | > 30 | 28.5 µM and > 30 µM | 5.93 | 6.84 µM and 5.56 µM and 5.38 µM | 5.93 ± 0.793 | 0.15 | IC50 [2, 11]: 4.21 µM; IC50 [3, 14]: 8.37 µM; EC50 [4, 28]: > 30 µM; EC50 [5, 29]: 17.2 µM |
| C=CC(=O)Nc1ccc2[nH]c(=O)n(C3CCN(Cc4ccc(-c5ncc(Cc6cnn(C)c6)cc5-c5ccccc5)cc4)CC3)c2c1 [compound 12] | 5.29 |  | -0.24 | 9.47 µM and 3.28 µM and 3.12 µM | 0.27 µM and 0.352 µM and 0.233 µM | 0.251 ± 0.018 | 0.64 µM and 0.477 µM and 0.703 µM | 0.607 ± 0.095 | 8.29 | 7.5 | 0.43 | 10.1 µM and 7.32 µM | 3.05 | 2.1 µM and 3.52 µM | 17.5 | > 30 µM and 26.7 µM | 1.28 | 1.29 µM (2×) and 1.26 µM | 1.28 ± 0.018 | 0.71 | IC50 [2, 11]: 0.251 µM; IC50 [3, 14]: 0.607 µM; EC50 [5, 29]: 3.04 µM |
| C=CC(=O)Nc1ccc2[nH]c(=O)n(C3CCN(Cc4ccc(-c5ncc(Cc6ccc(C)o6)cc5-c5ccccc5)cc4)CC3)c2c1 [compound 15] | 17.2 | 15.7 | -0.08 | 18.6 µM and 17.2 µM | 1.3 µM and 1.34 µM and 1.56 µM | 1.4 ± 0.112 | 4.83 µM and 5.38 µM and 2.87 µM | 4.36 ± 1.08 | 26.7 | 28 | 0.27 | 22.1 µM | 14.3 | 11.5 µM and 13.9 µM and 23.9 µM and 7.94 µM | > 30 | > 30 µM and 25.7 µM | 0.604 | 0.57 µM and 0.597 µM and 0.645 µM | 0.604 ± 0.031 | -0.37 |  |
